Consider 27 molecules from patent US9085555B2, “Complement pathway modulators and uses thereof” (priority 2011, dated 2015).

The target of the assay is Factor D (Homo sapiens (Human), UniProt P00746). Description: biochemical. The format is biochemical. The following applies: read-out: IC50.
Factor D, sequence (P00746 26-253): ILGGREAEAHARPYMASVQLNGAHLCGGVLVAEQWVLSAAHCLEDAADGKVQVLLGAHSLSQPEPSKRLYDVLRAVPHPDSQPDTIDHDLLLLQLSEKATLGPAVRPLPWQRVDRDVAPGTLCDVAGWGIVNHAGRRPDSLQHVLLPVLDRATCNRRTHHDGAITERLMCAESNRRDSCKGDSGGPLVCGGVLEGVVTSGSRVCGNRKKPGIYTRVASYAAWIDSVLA

For the molecule `CO[C@H]1[C@@H](C(=O)NC2(c3ccc(Cl)cc3)CC2)N(C(=O)Cn2cc(C(C)=O)c3ccccc32)C[C@@H]1F` [Example 573, (2S,3S,4S)-1-[2-(3-Acetyl-indol-1-yl)-acetyl]-4-fluoro-3-methoxy-pyrrolidine-2-carboxylic acid [1-(4-chloro-phenyl)-cyclopropyl]-amide], the IC50 turned out to be 865 nM.

For `NC(=O)c1cn(CC(=O)N2C[C@H](F)[C@@H](N)[C@H]2C(=O)NCc2cccc(Cl)c2F)c2ccccc12` [Example 574, 1-{2-[(2S,3S,4S)-3-Amino-2-(3-chloro-2-fluoro-benzylcarbamoyl)-4-fluoro-pyrrolidin-1-yl]-2-oxo-ethyl}-1H-indole-3-carboxylic acid amide], the IC50 was determined as 217 nM. The result for `CC(=O)c1cn(CC(=O)N2C[C@H](F)[C@@H](N)[C@H]2C(=O)NCc2cccc(Cl)c2F)c2ccccc12` [Example 575, (2S,3S,4S)-1-[2-(3-Acetyl-indol-1-yl)-acetyl]-3-amino-4-fluoro-pyrrolidine-2-carboxylic acid 3-chloro-2-fluoro-benzylamide] reads 843 nM.

Take `CC(=O)c1cn(CC(=O)N2C[C@@H](N)[C@H](F)[C@H]2C(=O)NCc2cccc(Cl)c2F)c2ccccc12` [Example 576, (2R,3S,4R)-1-[2-(3-Acetyl-indol-1-yl)-acetyl]-4-amino-3-fluoro-pyrrolidine-2-carboxylic acid 3-chloro-2-fluoro-benzylamide]: the IC50 was found to be 400 nM. Consider `NC(=O)c1cn(CC(=O)N2C[C@H](F)C[C@H]2C(=O)NCc2cccc(Cl)c2F)c2ccc(O)cc12` [Example 577, 1-{2-[(2S,4R)-2-(3-Chloro-2-fluoro-benzylcarbamoyl)-4-fluoro-pyrrolidin-1-yl]-2-oxo-ethyl}-5-hydroxy-1H-indole-3-carboxylic acid amide], for which the concentration for half-maximal inhibition (IC50) is 71 nM. The value for `CC(=O)c1cn(CC(=O)N2C[C@H](F)C[C@H]2C(=O)NCc2cccc(Cl)c2F)c2ccc(O)cc12` [Example 579, (2S,4R)-1-[2-(3-Acetyl-5-hydroxy-indol-1-yl)-acetyl]-4-fluoro-pyrrolidine-2-carboxylic acid 3-chloro-2-fluoro-benzylamide] was 39 nM; that for `CC(=O)c1cn(CC(=O)N2C[C@](C)(F)C[C@H]2C(=O)NCc2cccc(Cl)c2F)c2ccc(O)cc12` [Example 580, (2S,4R)-1-[2-(3-Acetyl-5-hydroxy-indol-1-yl)-acetyl]-4-fluoro-4-methyl-pyrrolidine-2-carboxylic acid 3-chloro-2-fluoro-benzylamide] was 252 nM. The value for `CC(=O)c1cn(CC(=O)N2[C@@H]3C[C@@H]3C[C@H]2C(=O)NCc2cccc(Cl)c2F)c2ccc(O)cc12` [Example 581, (1R,3S,5R)-2-[2-(3-Acetyl-5-hydroxy-indol-1-yl)-acetyl]-2-aza-bicyclo[3.1.0]hexane-3-carboxylic acid 3-chloro-2-fluoro-benzylamide] was 60 nM; that for `CC(=O)c1cn(CC(=O)N2C[C@](C)(F)C[C@H]2C(=O)NCc2cccc(Cl)c2F)c2cc(O)ccc12` [Example 582, (2S,4R)-1-[2-(3-Acetyl-6-hydroxy-indol-1-yl)-acetyl]-4-fluoro-4-methyl-pyrrolidine-2-carboxylic acid 3-chloro-2-fluoro-benzylamide] was 134 nM. The result for `CC(=O)c1cn(CC(=O)N2[C@@H]3C[C@@H]3C[C@H]2C(=O)NCc2cccc(Cl)c2F)c2cc(O)ccc12` [Example 584, (1R,3S,5R)-2-[2-(3-Acetyl-6-hydroxy-indol-1-yl)-acetyl]-2-aza-bicyclo[3.1.0]hexane-3-carboxylic acid 3-chloro-2-fluoro-benzylamide] reads 38 nM. `NC(=O)c1cn(CC(=O)N2C[C@H](F)C[C@H]2C(=O)NCc2cccc(Cl)c2F)c2cc(OCc3nn[nH]n3)ccc12` [Example 585, 1-{2-[(2S,4R)-2-(3-Chloro-2-fluoro-benzylcarbamoyl)-4-fluoro-pyrrolidin-1-yl]-2-oxo-ethyl}-6-(1H-tetrazol-5-ylmethoxy)-1H-indole-3-carboxylic acid amide]: the IC50 turned out to be 17 nM. As for `CC(=O)c1cn(CC(=O)N2C[C@H](F)C[C@H]2C(=O)NCc2cccc(Cl)c2F)c2cc(OCc3nn[nH]n3)ccc12` [Example 586, (2S,4R)-1-{2-[3-Acetyl-6-(1H-tetrazol-5-ylmethoxy)-indol-1-yl]-acetyl}-4-fluoro-pyrrolidine-2-carboxylic acid 3-chloro-2-fluoro-benzylamide], the IC50 was 132 nM.

In the case of `CC(=O)c1cn(CC(=O)N2[C@@H]3C[C@@H]3C[C@H]2C(=O)NCc2cccc(Cl)c2F)c2cc(OCc3nn[nH]n3)ccc12` [Example 587, (1R,3S,5R)-2-{2-[3-Acetyl-6-(1H-tetrazol-5-ylmethoxy)-indol-1-yl]-acetyl}-2-aza-bicyclo[3.1.0]hexane-3-carboxylic acid 3-chloro-2-fluoro-benzylamide], the IC50 was 79 nM. The value for `COc1ccc2c(c1)c(C(C)=O)cn2CC(=O)N1C[C@H](F)C[C@H]1C(=O)NCc1cccc(Cl)c1F` [Example 588, (2S,4R)-1-[2-(3-Acetyl-5-methoxy-indol-1-yl)-acetyl]-4-fluoro-pyrrolidine-2-carboxylic acid 3-chloro-2-fluoro-benzylamide] was 31 nM. The result for `CC(=O)c1cn(CC(=O)N2C[C@H](F)C[C@H]2C(=O)NCc2cccc(Cl)c2F)c2ccc(OCc3ccccn3)cc12` [Example 589, (2S,4R)-1-{2-[3-Acetyl-5-(pyridin-2-ylmethoxy)-indol-1-yl]-acetyl}-4-fluoro-pyrrolidine-2-carboxylic acid 3-chloro-2-fluoro-benzylamide] reads 237 nM; that for `CC(=O)c1cn(CC(=O)N2C[C@H](F)C[C@H]2C(=O)NCc2cccc(Cl)c2F)c2ccc(OCc3ncccn3)cc12` [Example 590, (2S,4R)-1-{2-[3-Acetyl-5-(pyrimidin-2-ylmethoxy)-indol-1-yl]-acetyl}-4-fluoro-pyrrolidine-2-carboxylic acid 3-chloro-2-fluoro-benzylamide], 10 nM; that for `COCCOc1ccc2c(C(N)=O)cn(CC(=O)N3C[C@H](F)C[C@H]3C(=O)NCc3cccc(Cl)c3F)c2c1` [Example 591, 1-{2-[(2S,4R)-2-(3-Chloro-2-fluoro-benzylcarbamoyl)-4-fluoro-pyrrolidin-1-yl]-2-oxo-ethyl}-6-(2-methoxy-ethoxy)-1H-indole-3-carboxylic acid amide], 109 nM. The result for `COC(=O)COc1ccc2c(C(N)=O)cn(CC(=O)N3C[C@H](F)C[C@H]3C(=O)NCc3cccc(Cl)c3F)c2c1` [Example 592, (3-Carbamoyl-1-{2-[(2S,4R)-2-(3-chloro-2-fluoro-benzylcarbamoyl)-4-fluoro-pyrrolidin-1-yl]-2-oxo-ethyl}-1H-indol-6-yloxy)-acetic acid methyl ester] reads 115 nM.

As for `NC(=O)c1cn(CC(=O)N2C[C@H](F)C[C@H]2C(=O)NCc2cccc(Cl)c2F)c2cc(OCC(=O)O)ccc12` [Example 593, (3-Carbamoyl-1-{2-[(2S,4R)-2-(3-chloro-2-fluoro-benzylcarbamoyl)-4-fluoro-pyrrolidin-1-yl]-2-oxo-ethyl}-1H-indol-6-yloxy)-acetic acid], the IC50 worked out at 56 nM. The value for `NC(=O)c1cn(CC(=O)N2C[C@H](F)C[C@H]2C(=O)NCc2cccc(Cl)c2F)c2cc(OCCO)ccc12` [Example 594, 1-{2-[(2S,4R)-2-(3-Chloro-2-fluoro-benzylcarbamoyl)-4-fluoro-pyrrolidin-1-yl]-2-oxo-ethyl}-6-(2-hydroxy-ethoxy)-1H-indole-3-carboxylic acid amide] was 85 nM; that for `CC(=O)c1cn(CC(=O)N2C[C@H](F)C[C@H]2C(=O)NCc2cccc(Cl)c2F)c2cc(CC(=O)O)ccc12` [Example 595, (3-Acetyl-1-{2-[(2S,4R)-2-(3-chloro-2-fluoro-benzylcarbamoyl)-4-fluoro-pyrrolidin-1-yl]-2-oxo-ethyl}-1H-indol-6-yl)-acetic acid] was 41 nM; that for `CC(=O)c1cn(CC(=O)N2[C@@H]3C[C@@H]3C[C@H]2C(=O)NCc2cccc(Cl)c2F)c2cc(CC(=O)O)ccc12` [Example 596, (3-Acetyl-1-{2-[(1R,3S,5R)-3-(3-chloro-2-fluoro-benzylcarbamoyl)-2-aza-bicyclo[3.1.0]hex-2-yl]-2-oxo-ethyl}-1H-indol-6-yl)-acetic acid] was 95 nM. Turning to `CC(=O)c1cn(CC(=O)N2C[C@H](F)C[C@H]2C(=O)NCc2cccc(Cl)c2F)c2cc(C(=O)O)ccc12` [Example 597, 3-Acetyl-1-{2-[(2S,4R)-2-(3-chloro-2-fluoro-benzylcarbamoyl)-4-fluoro-pyrrolidin-1-yl]-2-oxo-ethyl}-1H-indole-6-carboxylic acid], the IC50 stood at 14 nM. Turning to `CC(=O)c1cn(CC(=O)N2[C@@H]3C[C@@H]3C[C@H]2C(=O)NCc2cccc(Cl)c2F)c2cc(C(=O)O)ccc12` [Example 598, 3-Acetyl-1-{2-[(1R,3S,5R)-3-(3-chloro-2-fluoro-benzylcarbamoyl)-2-aza-bicyclo[3.1.0]hex-2-yl]-2-oxo-ethyl}-1H-indole-6-carboxylic acid], the IC50 turned out to be 14 nM. The result for `CC(=O)c1cn(CC(=O)N2C[C@](C)(F)C[C@H]2C(=O)NCc2cccc(Cl)c2F)c2cc(C(=O)O)ccc12` [Example 599, 3-Acetyl-1-{2-[(2S,4R)-2-(3-chloro-2-fluoro-benzylcarbamoyl)-4-fluoro-4-methyl-pyrrolidin-1-yl]-2-oxo-ethyl}-1H-indole-6-carboxylic acid] reads 46 nM; that for `CC(=O)c1cn(CC(=O)N2[C@@H]3C[C@@H]3C[C@H]2C(=O)NCc2cccc(Cl)c2F)c2c(C(=O)O)cccc12` [Example 601, 3-Acetyl-1-{2-[(1R,3S,5R)-3-(3-chloro-2-fluoro-benzylcarbamoyl)-2-aza-bicyclo[3.1.0]hex-2-yl]-2-oxo-ethyl}-1H-indole-7-carboxylic acid], 110 nM. The value for `CC(=O)c1cn(CC(=O)N2C[C@H](F)C[C@H]2C(=O)NCc2cccc(Cl)c2F)c2cc(OCc3ccc(C(=O)O)cc3)ccc12` [Example 602, 4-(3-Acetyl-1-{2-[(2S,4R)-2-(3-chloro-2-fluoro-benzylcarbamoyl)-4-fluoro-pyrrolidin-1-yl]-2-oxo-ethyl}-1H-indol-6-yloxymethyl)-benzoic acid] was 227 nM.

The IC50 is the point on the concentration scale where inhibition reaches its midpoint.
